Reference: US6737383B1, “Herbicidal oxadiazolidines” (priority 1999, dated 2004)

What was measured:
bedstraw = assay: Test B pre/postemergence bedstraw; format: in vivo, Galium aparine
Method in brief: (§1)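 Response is a visual 0-to-10 score relative to untreated plants, where 0 means no effect and 10 means complete control, taken twelve to sixteen days after application. Treatments went onto soil at planting and onto foliage of 1- to 4-leaf plants, using a surfactant-containing non-phytotoxic solvent.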

blackgrass = assay: Test B pre/postemergence blackgrass; format: in vivo, Alopecurus myosuroides
Method in brief: as §1

surinam grass = assay: Test B pre/postemergence surinam grass; format: in vivo, Brachiaria decumbens
Method in brief: as §1

corn = assay: Test B pre/postemergence corn; format: in vivo, Zea mays
Method in brief: as §1

crabgrass = assay: Test B pre/postemergence crabgrass; format: in vivo, Digitaria sanguinalis
Method in brief: as §1

giant foxtail = assay: Test B pre/postemergence giant foxtail; format: in vivo, Setaria faberii
Method in brief: as §1

morningglory = assay: Test B pre/postemergence morningglory; format: in vivo, Ipomoea hederacea
Method in brief: as §1

pigweed = assay: Test B pre/postemergence pigweed; format: in vivo, Amaranthus retroflexus
Method in brief: as §1

soybean = assay: Test B pre/postemergence soybean; format: in vivo, Glycine max
Method in brief: as §1

velvetleaf = assay: Test B pre/postemergence velvetleaf; format: in vivo, Abutilon theophrasti
Method in brief: as §1

wheat = assay: Test B pre/postemergence wheat; format: in vivo, Triticum aestivum
Method in brief: as §1

wild oat = assay: Test B pre/postemergence wild oat; format: in vivo, Avena fatua
Method in brief: as §1

purple nutsedge = assay: Test B pre/postemergence purple nutsedge; format: in vivo, Cyperus rotundus
Method in brief: as §1

rice = assay: Test B flood test rice; format: in vivo, Oryza sativa
Method in brief: (§2)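 Read-out is a visual response score from 0 (no effect) to 10 (complete control), assigned by comparison with untreated controls. Treatment was applied at the 2-leaf stage, and plants stayed in the greenhouse for twelve to sixteen days before scoring.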

smallflower flatsedge = assay: Test B flood test smallflower flatsedge; format: in vivo, Cyperus difformis
Method in brief: as §2

duck salad = assay: Test B flood test duck salad; format: in vivo, Heteranthera limosa
Method in brief: as §2

[1] = Preemergence, Rate 62 g/ha, scale of 0 to 10 where 0 is no effect and 10 is complete control
[2] = Preemergence, Rate 125 g/ha, 0 is no effect, 10 is complete control
[3] = Preemergence, Rate 250 g/ha, scale 0 to 10, 0 is no effect, 10 is complete control
[4] = Rate 62 g/ha, Postemergence, scale of 0 to 10 where 0 is no effect and 10 is complete control
[5] = Rate 125 g/ha, Postemergence, scale 0 to 10
[6] = Rate 500 g/ha, Postemergence, scale 0 to 10
[7] = Preemergence, Rate 500 g/ha, scale 0 to 10 (0 no effect, 10 complete control)
[8] = Rate 62 g/ha, headed Pre-emergence (flood test species), scale 0 to 10 (0 no effect, 10 complete control)
[9] = Rate 125 g/ha, Pre-emergence, flood test species, scale 0 to 10 where 0 is no effect and 10 is complete control
[10] = Rate 250 g/ha, Pre-emergence, flood-test species, scale 0 to 10, 0 is no effect, 10 is complete control
[11] = Rate 500 g/ha, headed Pre-emergence (flood test species), scale 0 to 10 (0 no effect, 10 complete control)

COc1nc(OC)nc(N(C(=O)n2oc(=O)n(-c3ccccc3C)c2=O)C(C)C)n1 [Compound 181]
0: Bedstraw plant response rating (bedstraw; [1]) | Bedstraw plant response rating (0 to 10 scale) (bedstraw; [2]) | Bedstraw plant response rating (bedstraw; [3]) | Bedstraw plant response rating (bedstraw; [4]) | Bedstraw plant response rating (bedstraw; [5]) | Plant response rating (0 to 10; 0 is no effect, 10 is complete control), Bedstraw (bedstraw; Rate 250 g/ha, Postemergence) | Bedstraw plant response rating (bedstraw; [6]) | Blackgrass plant response rating (blackgrass; [1]) | Blackgrass plant response rating (0 to 10 scale) (blackgrass; [2]) | Blackgrass plant response rating (blackgrass; [3]) | Blackgrass plant response rating (blackgrass; [7]) | Blackgrass plant response rating (blackgrass; [4]) | Blackgrass plant response rating (blackgrass; [5]) | Plant response rating (0 to 10; 0 is no effect, 10 is complete control), Blackgrass (blackgrass; Rate 250 g/ha, Postemergence) | Blackgrass plant response rating (blackgrass; [6]) | B. signalgrass plant response rating (surinam grass; [1]) | B. signalgrass plant response rating (0 to 10 scale) (surinam grass; [2]) | B. signalgrass plant response rating (surinam grass; [3]) | B. signalgrass plant response rating (surinam grass; [7]) | B. signalgrass plant response rating (surinam grass; [4]) | B. signalgrass plant response rating (surinam grass; Rate 125 g/ha, Postemergence, scale 0 (no effect) to 10 (complete control)) | Plant response rating, B. signalgrass (surinam grass; Rate 250 g/ha, Postemergence, scale 0 to 10, 0 is no effect, 10 is complete control) | B. signalgrass plant response rating (surinam grass; Rate 500 g/ha, Postemergence, scale 0 to 10, 0 no effect, 10 complete control) | Corn plant response rating (corn; [1]) | Corn plant response rating (0 to 10 scale) (corn; [2]) | Corn plant response rating (corn; [3]) | Corn plant response rating (corn; [7]) | Corn plant response rating (corn; [4]) | Corn plant response rating (corn; [5]) | Plant response rating (0 to 10; 0 is no effect, 10 is complete control), Corn (corn; Rate 250 g/ha, Postemergence) | Corn plant response rating (corn; [6]) | Crabgrass plant response rating (crabgrass; [1]) | Crabgrass plant response rating (0 to 10 scale) (crabgrass; [2]) | Crabgrass plant response rating (crabgrass; [3]) | Crabgrass plant response rating (crabgrass; [7]) | Crabgrass plant response rating (crabgrass; [4]) | Crabgrass plant response rating (crabgrass; [5]) | Plant response rating (0 to 10; 0 is no effect, 10 is complete control), Crabgrass (crabgrass; Rate 250 g/ha, Postemergence) | Crabgrass plant response rating (crabgrass; [6]) | Giant foxtail plant response rating (giant foxtail; [1]) | Giant foxtail plant response rating (0 to 10 scale) (giant foxtail; [2]) | Giant foxtail plant response rating (giant foxtail; [3]) | Giant foxtail plant response rating (giant foxtail; [7]) | Giant foxtail plant response rating (giant foxtail; [4]) | Giant foxtail plant response rating (giant foxtail; [5]) | Plant response rating (0 to 10; 0 is no effect, 10 is complete control), Giant foxtail (giant foxtail; Rate 250 g/ha, Postemergence) | Giant foxtail plant response rating (giant foxtail; [6]) | Morningglory plant response rating (morningglory; [1]) | Morningglory plant response rating (0 to 10 scale) (morningglory; [2]) | Morningglory plant response rating (morningglory; [3]) | Morningglory plant response rating (morningglory; [7]) | Morningglory plant response rating (morningglory; [4]) | Morningglory plant response rating (morningglory; [5]) | Plant response rating (0 to 10; 0 is no effect, 10 is complete control), Morningglory (morningglory; Rate 250 g/ha, Postemergence) | Morningglory plant response rating (morningglory; [6]) | Redroot pigweed plant response rating (pigweed; [1]) | Redroot pigweed plant response rating (0 to 10 scale) (pigweed; [2]) | Redroot pigweed plant response rating (pigweed; [3]) | Redroot pigweed plant response rating (pigweed; [7]) | Redroot pigweed plant response rating (pigweed; [4]) | Redroot pigweed plant response rating (pigweed; [5]) | Plant response rating (0 to 10; 0 is no effect, 10 is complete control), Redroot pigweed (pigweed; Rate 250 g/ha, Postemergence) | Redroot pigweed plant response rating (pigweed; [6]) | Soybean plant response rating (soybean; [1]) | Soybean plant response rating (0 to 10 scale) (soybean; [2]) | Soybean plant response rating (soybean; [3]) | Soybean plant response rating (soybean; [7]) | Soybean plant response rating (soybean; [4]) | Soybean plant response rating (soybean; [5]) | Plant response rating (0 to 10; 0 is no effect, 10 is complete control), Soybean (soybean; Rate 250 g/ha, Postemergence) | Soybean plant response rating (soybean; [6]) | Velvetleaf plant response rating (velvetleaf; [1]) | Velvetleaf plant response rating (velvetleaf; [3]) | Velvetleaf plant response rating (velvetleaf; [7]) | Velvetleaf plant response rating (velvetleaf; [5]) | Plant response rating (0 to 10; 0 is no effect, 10 is complete control), Velvetleaf (velvetleaf; Rate 250 g/ha, Postemergence) | Velvetleaf plant response rating (velvetleaf; [6]) | Wheat plant response rating (wheat; [1]) | Wheat plant response rating (wheat; [3]) | Wheat plant response rating (wheat; [7]) | Wheat plant response rating (wheat; [5]) | Plant response rating (0 to 10; 0 is no effect, 10 is complete control), Wheat (wheat; Rate 250 g/ha, Postemergence) | Wheat plant response rating (wheat; [6]) | Wild oats plant response rating (wild oat; [1]) | Wild oats plant response rating (wild oat; [3]) | Wild oats plant response rating (wild oat; [7]) | Wild oats plant response rating (wild oat; [5]) | Plant response rating (0 to 10; 0 is no effect, 10 is complete control), Wild oats (wild oat; Rate 250 g/ha, Postemergence) | Wild oats plant response rating (wild oat; [6]) | Nutsedge plant response rating (purple nutsedge; [1]) | Nutsedge plant response rating (0 to 10 scale) (purple nutsedge; [2]) | Nutsedge plant response rating (purple nutsedge; [3]) | Nutsedge plant response rating (purple nutsedge; [7]) | Nutsedge plant response rating (purple nutsedge; [4]) | Nutsedge plant response rating (purple nutsedge; [5]) | Plant response rating (0 to 10; 0 is no effect, 10 is complete control), Nutsedge (purple nutsedge; Rate 250 g/ha, Postemergence) | Nutsedge plant response rating (purple nutsedge; [6]) | Rice plant response rating (rice; [8]) | Rice plant response rating (rice; [9]) | Rice plant response rating (rice; [10]) | Plant response rating, Rice (rice; [11]) | S. Flatsedge plant response rating (smallflower flatsedge; [8]) | S. Flatsedge plant response rating (smallflower flatsedge; [9]) | S. Flatsedge plant response rating (smallflower flatsedge; [10]) | S. Flatsedge plant response rating (smallflower flatsedge; Rate 500 g/ha, Pre-emergence, flood test species, scale 0 to 10 (0 no effect, 10 complete control)) | Ducksalad plant response rating (duck salad; [8]) | Ducksalad plant response rating (duck salad; [9]) | Ducksalad plant response rating (duck salad; [10]) | Plant response rating, Ducksalad (duck salad; [11])
